# Experimental data published in patent US20240199542A1, “SUBSTITUTED PYRROLIDIN-2-ONES, SALTS THEREOF AND THEIR USE AS HERBICIDALLY ACTIVE SUBSTANCES” (Bayer Aktiengesellschaft, priority 2021, published 2024).
# Legend:
# Format in all cases: in vivo
# [1] = system: Alopecurus myosuroides (ALOMY); experiment: Herbicidal pre-emergence action; details: 1280 g/ha, graded after ca. 3 weeks
# In short: (§1)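 Sown seeds in sandy loam received the formulated compounds on the covering soil at application rates up to 1280 g/ha, applied in 600 l water/ha with 0.5% additive. Damage was graded visually after about 3 weeks relative to untreated plants.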
# Avena fatua (AVEFA) [2] = experiment: Herbicidal pre-emergence action; details: 1280 g/ha, graded after ca. 3 weeks
# In short: as §1
# [3] = system: Cyperus esculentus (CYPES); experiment: Herbicidal pre-emergence action; details: 1280 g/ha, graded after ca. 3 weeks
# In short: as §1
# [4] = system: Digitaria sanguinalis (DIGSA); experiment: Herbicidal pre-emergence action; details: 320 g/ha, graded after ca. 3 weeks
# In short: as §1
# [5] = system: Echinochloa crus-galli (ECHCG); experiment: Herbicidal pre-emergence action; details: 1280 g/ha, graded after ca. 3 weeks
# In short: as §1
# [6] = system: Lolium multiflorum (LOLMU); experiment: Herbicidal pre-emergence action; details: 1280 g/ha, graded after ca. 3 weeks
# In short: as §1
# [7] = system: Pharbitis purpurea (PHBPU); experiment: Herbicidal pre-emergence action; details: 1280 g/ha, graded after ca. 3 weeks
# In short: as §1
# [8] = system: Polygonum convolvulus (POLCO); experiment: Herbicidal pre-emergence action; details: 1280 g/ha, graded after ca. 3 weeks
# In short: as §1
# Setaria viridis (SETVI) [9] = experiment: Herbicidal pre-emergence action; details: 1280 g/ha, graded after ca. 3 weeks
# In short: as §1
# Stellaria media (STEME) [10] = experiment: Herbicidal pre-emergence action; details: 1280 g/ha, graded after ca. 3 weeks
# In short: as §1
# Veronica persica (VERPE) [11] = experiment: Herbicidal pre-emergence action; details: 1280 g/ha, graded after ca. 3 weeks
# In short: as §1
# Viola tricolor (VIOTR) [12] = experiment: Herbicidal pre-emergence action; details: graded after ca. 3 weeks
# In short: as §1
# [13] = system: Alopecurus myosuroides (ALOMY); experiment: Herbicidal post-emergence action; details: 1280 g/ha, assessed after ca. 3 weeks
# In short: (§2)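 Visual % herbicidal effect versus untreated controls, scored ~3 weeks after spraying; 100% = dead, 0% = like control. Single-leaf-stage greenhouse plants, sprayed with WP/EC in aqueous spray + 0.5% additive, 600 l/ha, at 1280 or 320 g/ha.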
# Avena fatua (AVEFA) [14] = experiment: Herbicidal post-emergence action; details: 1280 g/ha, assessed after ca. 3 weeks
# In short: as §2
# [15] = system: Digitaria sanguinalis (DIGSA); experiment: Herbicidal post-emergence action; details: 320 g/ha, assessed after ca. 3 weeks
# In short: as §2
# [16] = system: Echinochloa crus-galli (ECHCG); experiment: Herbicidal post-emergence action; details: 1280 g/ha, assessed after ca. 3 weeks
# In short: as §2
# Lolium rigidum (LOLRI) = experiment: Herbicidal post-emergence action; details: 320 g/ha, assessed after ca. 3 weeks
# In short: as §2
# Brassica napus (BRSNW) [17] = experiment: Pre-emergence effects on crop plants; details: 320 g/ha, crop plant
# From the text: (§3) Seeds of mono- and dicotyledonous weed plants and crop plants were sown, in plastic or organic planting pots, in sandy loam and covered with soil. The compounds according to the invention, formulated in the form of wettable powders (WP) or as emulsifiable concentrates (EC), were applied to the surface of the covering soil as aqueous suspension or emulsion, with the addition of 0.5% of an additive, at an application rate of 600 1 of water/ha (converted).
# (§4) Following treatment, the pots were placed in a greenhouse and kept under optimum growth conditions for the test plants. The visual grading of the damage to the test plants was carried out after ca. 3 weeks in comparison to untreated controls (herbicidal effect in percent (%): 100% effect=plants have died off, 0% effect=as control plants).
# (§5) Tables C1 to C3 below show the effects of selected compounds of the general formula (I) according to table 1 on various crop plants and an application rate corresponding to 320 g/ha or below obtained by the experimental procedure mentioned above in biology section A.
# Glycine max (GLXMA) [18] = experiment: Pre-emergence effects on crop plants; details: 320 g/ha, crop plant
# From the text: as §3, §4, §5
# Zea Mays (ZEAMX) [19] = experiment: Pre-emergence effects on crop plants; details: 320 g/ha, crop plant
# From the text: as §3, §4, §5
# Brassica napus (BRSNW) [20] = experiment: Post-emergence effects on crop plants; details: application rate 320 g/ha, crop plant Brassica napus (BRSNW)
# In short: (§6)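 Greenhouse-grown plants in sandy loam sprayed post-emergence at single-leaf stage (2–3 weeks after sowing) with WP or EC formulations plus 0.5% additive, 600 l water/ha, at rates of 320 g/ha or below. Visual damage scored ca. 3 weeks later versus untreated controls, 0% (as control) to 100% (dead).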
# Glycine max (GLXMA) [21] = experiment: Post-emergence effects on crop plants; details: 320 g/ha, crop plant
# In short: as §6
# Zea Mays (ZEAMX) [22] = experiment: Post-emergence effects on crop plants; details: 320 g/ha, crop plant
# In short: as §6
# [23] = system: Amaranthus retroflexus (AMARE); experiment: Herbicidal post-emergence action; details: 1280 g/ha, assessed after ca. 3 weeks
# In short: as §2
# [24] = system: Polygonum convolvulus (POLCO); experiment: Herbicidal post-emergence action; details: 1280 g/ha, assessed after ca. 3 weeks
# In short: as §2
# Stellaria media (STEME) [25] = experiment: Herbicidal post-emergence action; details: 1280 g/ha, assessed after ca. 3 weeks
# In short: as §2
# Viola tricolor (VIOTR) [26] = experiment: Herbicidal post-emergence action; details: 1280 g/ha, assessed after ca. 3 weeks
# In short: as §2
# [27] = system: Lolium multiflorum (LOLMU); experiment: Herbicidal post-emergence action; details: 1280 g/ha, assessed after ca. 3 weeks
# In short: as §2
# Veronica persica (VERPE) [28] = experiment: Herbicidal post-emergence action; details: 1280 g/ha, assessed after ca. 3 weeks
# In short: as §2
# [29] = system: Matricaria inodora (MATIN); experiment: Herbicidal pre-emergence action; details: 1280 g/ha, graded after ca. 3 weeks
# In short: as §1
# [30] = system: Matricaria inodora (MATIN); experiment: Herbicidal post-emergence action; details: 1280 g/ha, assessed after ca. 3 weeks
# In short: as §2
# [31] = system: Pharbitis purpurea (PHBPU); experiment: Herbicidal post-emergence action; details: 1280 g/ha, assessed after ca. 3 weeks
# In short: as §2
# Setaria viridis (SETVI) [32] = experiment: Herbicidal post-emergence action; details: 1280 g/ha, assessed after ca. 3 weeks
# In short: as §2
# [33] = system: Amaranthus retroflexus (AMARE); experiment: Herbicidal pre-emergence action; details: 1280 g/ha, graded after ca. 3 weeks
# In short: as §1
Structure (SMILES),Pre-emergence activity against ALOMY [1] [%],Pre-emergence activity against AVEFA (Avena fatua (AVEFA) [2]) [%],Pre-emergence activity against CYPES [3] [%],Pre-emergence activity against ECHCG [5] [%],Pre-emergence activity against POLCO [8] [%],Pre-emergence activity against SETVI (Setaria viridis (SETVI) [9]) [%],Post-emergence activity against ALOMY [13] [%],Post-emergence activity against AVEFA (Avena fatua (AVEFA) [14]) [%],Post-emergence activity against ECHCG [16] [%],Post-emergence activity against STEME (Stellaria media (STEME) [25]) [%],other results
O=C(CC1CCC(=O)N1Cc1cccc(F)c1F)OCCOc1ccc(F)cc1 (racemic) [Example I-007],90,100,90,90,90,90,80,90,90,,Pre-emergence activity against DIGSA [4]: 90%; Pre-emergence activity against LOLMU [6]: 90%; Pre-emergence activity against PHBPU [7]: 80%; Pre-emergence activity against STEME (Stellaria media (STEME) [10]): 80%; Pre-emergence activity against VERPE (Veronica persica (VERPE) [11]): 90%; Pre-emergence activity against VIOTR (Viola tricolor (VIOTR) [12]; 320 g/ha): 90%; Post-emergence activity against DIGSA [15]: 90%; Post-emergence activity against LOLRI (Lolium rigidum (LOLRI)): 80%; pre-emergence activity against BRSNW (crop damage) (Brassica napus (BRSNW) [17]): 0%; pre-emergence activity against GLXMA (crop damage) (Glycine max (GLXMA) [18]): 0%; pre-emergence activity against ZEAMX (crop damage) (Zea Mays (ZEAMX) [19]): 0%; post-emergence activity against BRSNW (Brassica napus (BRSNW) [20]): 0%; post-emergence activity against GLXMA (crop damage) (Glycine max (GLXMA) [21]): 0%; post-emergence activity against ZEAMX (crop damage) (Zea Mays (ZEAMX) [22]): 0%
CC1CC(=O)C(C(=O)CC2CCC(=O)N2Cc2cccc(F)c2F)C(=O)C1 (racemic) [Example I-180],80,90,,90,,,,80,90,90,Post-emergence activity against AMARE [23]: 90%; Post-emergence activity against POLCO [24]: 80%; Post-emergence activity against VIOTR (Viola tricolor (VIOTR) [26]): 80%
Cn1nnnc1NC(=O)CC1CCC(=O)N1Cc1cccc(F)c1F (racemic) [Example I-004],90,100,100,80,80,80,90,100,100,80,Pre-emergence activity against LOLMU [6]: 90%; Post-emergence activity against LOLMU [27]: 90%; Post-emergence activity against VERPE (Veronica persica (VERPE) [28]): 80%
CC1(C)C(=O)C(C(=O)CC2CCC(=O)N2Cc2cccc(F)c2F)C(=O)C(C)(C)C1=O (racemic) [Example I-184],,,,,,,80,80,,80,Pre-emergence activity against MATIN [29]: 80%; Post-emergence activity against AMARE [23]: 80%; Post-emergence activity against LOLMU [27]: 80%; Post-emergence activity against MATIN [30]: 90%; Post-emergence activity against PHBPU [31]: 90%; Post-emergence activity against VERPE (Veronica persica (VERPE) [28]): 80%
CC1(C)CC(=O)C(C(=O)CC2CCC(=O)N2Cc2cccc(F)c2F)C(=O)C1 (racemic) [Example I-179],,90,,,,,,90,90,80,Pre-emergence activity against STEME (Stellaria media (STEME) [10]): 80%; Post-emergence activity against SETVI (Setaria viridis (SETVI) [32]): 80%
O=C(CC1CCC(=O)N1Cc1cccc(F)c1F)NCc1ccccc1 (racemic) [Example I-055],,80,100,,,,,,,,Pre-emergence activity against AMARE [33]: 100%
O=C(CC1CCC(=O)N1Cc1cccc(F)c1F)OCCOc1ccc(Cl)cc1 (racemic) [Example I-033],90,100,80,80,,80,80,,80,,Pre-emergence activity against MATIN [29]: 80%; Pre-emergence activity against PHBPU [7]: 80%; Pre-emergence activity against VERPE (Veronica persica (VERPE) [11]): 90%
"O=C(O)CC1CCC(=O)N1Cc1cccc(F)c1F (single isomer, unassigned) [Example I-065]",,80,,,100,,,90,,,Pre-emergence activity against VIOTR (Viola tricolor (VIOTR) [12]; 1280 g/ha): 100%; Post-emergence activity against PHBPU [31]: 80%
